Assays:
A375P cell line = assay: B-Raf cell activity inhibition (A375P growth inhibition, MTT assay); format: cell-based; conditions: A375P human melanoma, V600E mutant of B-Raf, 72 hours
Description: To check the B-Raf cell activity inhibitory capability of the compounds of the present invention, the following experiments were conducted in A375P cell line (ATCC). […] A375 cell was maintained in DMEM supplemented with 10% fetal bovine serum, glutamine (2 mM), penicillin (100 U/mL), and streptomycin (100 μg/mL). The cell was maintained at 37° C., and in 5% CO2 and 100% humidity. To conduct the growth inhibition test, the cell was plated by using a white 384-well microplate, with 1000 cells/20 μl plated per 1 well. After 24 hours, 5 μl of 5× stock solution of drug was added. All the drugs were initially prepared with 200× stock solution in DMSO, and the final concentration of DMSO was 0.5%. The cell was incubated at 37° C. for 72 hours. For MTT assay, ‘CellTiter 96 (R) Non-Radioactive Cell Proliferation Assay (G4100)’ kit by Promega Corp. was used. 15 μl of dye solution of the Promega kit was put into each well and was cultured in the incubator for 4 hours. And 100 μl of each Solubilization/Stop Solution substance of the kit was added and fixed in the incubator for 24 hours again. And then, absorbance was measured by using a 96-well plate reader with 570 nm of absorbance.

B-Raf = B-Raf (Homo sapiens (Human), UniProt P15056); assay: B-Raf kinase activity (B-Raf/MEK1/MAPK2 cascade, MBP phosphorylation, [γ-32P]ATP); format: biochemical; conditions: activated B-Raf, inactivated MEK1, inactivated MAPK2, 30° C., 30 minutes, read-out: B-Raf Enzyme Activity
Description: To check the B-Raf kinase inhibitory activity of the compounds of the present invention, the following experiments were conducted.
20 μl of diluting solvent (20 mM MOPS, pH 7.2, 25 mM β-glycerol phosphate, 5 mM EGTA, 1 mM sodium orthovanadate, 1 mM dithiothreitol) and 10 μl of Mg/ATP mixed solution (500 μM ATP, 75 mM magnesium chloride) were added into a centrifuge tube, the derivative compound of Formula 1 was added or the compounds of the Examples were not added as a control group, and then 1 ng of activated B-Raf, 0.4 ng of inactivated MEK1, and 1 μg of inactivated MAPK2 were added. The solutions in the tube were collected on the bottom via centrifugation and were reacted at 30° C. for 30 minutes. After taking 4 μl of the mixed solution, the test proceeded to the next step.
(2) Phosphorylation of Matrix Protein MBP by MAPK2
10 μl of diluting solvent, 20 μg of MBP used as a matrix, and 10 μl of diluted [γ-32P]ATP (1 μCi/μL) were added into the 4 μl of the mixed solution obtained from (1). The solutions in the tube were collected on the bottom via centrifugation and were reacted at 30° C. for 30 minutes. And 25 μl of the reacted solution was put carefully on the center of a filter paper (2 cm×2 cm P81) for 30 seconds. Afterwards, the filter paper was cleaned with 0.75% phosphoric acid for 10 minutes three times and with acetone for 5 minutes one time. The filter paper was then moved to a scintillation vial and 5 ml of scintillation cocktail was added thereto. The inhibition rate (IC50) over B-Raf activity was measured by reading radioactivity through a scintillation counter while comparing to the control group.

Sequence of B-Raf (P15056 whole entry): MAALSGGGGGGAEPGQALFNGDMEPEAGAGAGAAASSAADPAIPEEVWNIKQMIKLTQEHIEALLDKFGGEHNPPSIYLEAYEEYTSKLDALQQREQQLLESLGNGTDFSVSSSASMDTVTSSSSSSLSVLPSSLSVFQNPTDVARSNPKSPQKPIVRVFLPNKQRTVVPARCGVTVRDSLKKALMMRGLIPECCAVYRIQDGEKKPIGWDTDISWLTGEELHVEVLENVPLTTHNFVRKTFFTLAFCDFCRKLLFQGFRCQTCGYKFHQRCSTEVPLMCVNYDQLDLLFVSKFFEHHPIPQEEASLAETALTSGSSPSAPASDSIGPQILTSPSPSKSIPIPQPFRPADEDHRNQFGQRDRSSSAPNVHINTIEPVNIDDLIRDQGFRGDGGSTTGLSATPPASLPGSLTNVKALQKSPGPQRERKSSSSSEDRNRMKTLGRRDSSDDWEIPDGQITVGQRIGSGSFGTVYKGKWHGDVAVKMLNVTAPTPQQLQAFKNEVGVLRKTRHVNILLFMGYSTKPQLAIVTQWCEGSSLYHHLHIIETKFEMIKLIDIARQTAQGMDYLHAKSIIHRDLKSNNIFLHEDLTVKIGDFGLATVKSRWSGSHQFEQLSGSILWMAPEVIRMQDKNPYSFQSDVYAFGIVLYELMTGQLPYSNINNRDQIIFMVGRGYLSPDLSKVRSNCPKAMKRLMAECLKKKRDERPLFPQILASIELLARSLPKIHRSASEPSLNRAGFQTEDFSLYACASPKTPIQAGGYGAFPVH

IC50 (A375P cell line) [nM] | IC50 (B-Raf) [nM] | SMILES
100 | 15 | Cc1cc(S(=O)(=O)Nc2ccc(F)c(Nc3ncccc3-c3ncnc4[nH]cnc34)c2F)c(C)o1 [Example 25, N-(3-(3-(9H-purin-6-yl)pyridin-2-ylamino)-2,4-difluorophenyl)-2,5-dimethylfuran-3-sulfonamide]
230 | 8.8 | O=S(=O)(Nc1ccc(F)c(Nc2ncccc2-c2ncnc3[nH]cnc23)c1F)c1cccc(C(F)(F)F)c1 [Example 2, N-(3-(3-(9H-purin-6-yl)pyridin-2-ylamino)-2,4-difluorophenyl)-3-(trifluoromethyl)benzenesulfonamide]
5200 | 30 | O=S(=O)(Nc1ccc(F)c(Nc2ncccc2-c2ncnc3[nH]cnc23)c1F)c1ccc(C(F)(F)F)cc1 [Example 3, N-(3-(3-(9H-purin-6-yl)pyridin-2-ylamino)-2,4-difluorophenyl)-4-(trifluoromethyl)benzenesulfonamide]
4300 | 832 | O=S(=O)(Nc1ccc(F)c(Nc2ncccc2-c2ncnc3[nH]cnc23)c1F)c1cc2ccccc2o1 [Example 7, N-(3-(3-(9H-purin-6-yl)pyridin-2-ylamino)-2,4-difluorophenyl)benzofuran-2-sulfonamide]
1000 | 1800 | Cn1cnc(S(=O)(=O)Nc2ccc(F)c(Nc3ncccc3-c3ncnc4[nH]cnc34)c2F)c1 [Example 22, N-(3-(3-(9H-purin-6-yl)pyridin-2-ylamino)-2,4-difluorophenyl)-1-methyl-1-imidazole-4-sulfonamide]
9600 | 1500 | COC(=O)c1sccc1S(=O)(=O)Nc1ccc(F)c(Nc2ncccc2-c2ncnc3[nH]cnc23)c1F [Example 16, Methyl-3-(N-(3-(3-(9H-purin-6-yl)pyridin-2-ylamino)-2,4-difluorophenyl)sulfamoyl)thiophene-2-carboxylate]
600 | 610 | O=S(=O)(Nc1ccc(F)c(Nc2ncccc2-c2ncnc3[nH]cnc23)c1F)c1ccc(OC(F)(F)F)cc1 [Example 12, N-(3-(3-(9H-purin-6-yl)pyridin-2-ylamino)-2,4-difluorophenyl)-4-(trifluoromethoxy)benzenesulfonamide]
250 | 50 | O=S(=O)(Nc1ccc(F)c(Nc2ncccc2-c2ncnc3[nH]cnc23)c1F)C1CC1 [Example 19, N-(3-(3-(9H-purin-6-yl)pyridin-2-ylamino)-2,4-difluorophenyl)cyclopropansulfonamide]
500 | 40 | O=S(=O)(Nc1ccc(F)c(Nc2ncccc2-c2ncnc3[nH]cnc23)c1F)c1cccc(Cl)c1Cl [Example 34, N-(3-(3-(9H-purin-6-yl)pyridin-2-ylamino)-2,4-difluorophenyl)-2,3-chlorobenzenesulfonamide]
700 | 160 | Cc1nc(C)c(S(=O)(=O)Nc2ccc(F)c(Nc3ncccc3-c3ncnc4[nH]cnc34)c2F)s1 [Example 20, N-(3-(3-(9H-purin-6-yl)pyridin-2-ylamino)-2,4-difluorophenyl)-2,4-dimethylthiazole-5-sulfonamide]
810 | 90 | O=S(=O)(Nc1ccc(F)c(Nc2ncccc2-c2ncnc3[nH]cnc23)c1F)c1cccc2ccoc12 [Example 37, N-(3-(3-(9H-purin-6-yl)pyridin-2-ylamino)-2,4-difluorophenyl)benzofuran-7-sulfonamide]
200 |  | O=S(=O)(Nc1ccc(F)c(Nc2ncccc2-c2ncnc3[nH]cnc23)c1F)c1ccc(Cl)s1 [Example 44]
150 | 420 | O=S(=O)(Nc1ccc(F)c(Nc2ncccc2-c2ncnc3[nH]cnc23)c1F)c1ccc(F)cc1C(F)(F)F [Example 13, N-(3-(3-(9H-purin-6-yl)pyridin-2-ylamino)-2,4-difluorophenyl)-4-fluoro-2-(trifluoromethyl)benzenesulfonamide]
 | 1500 | O=[N+]([O-])c1ccccc1CS(=O)(=O)Nc1ccc(F)c(Nc2ncccc2-c2ncnc3[nH]cnc23)c1F [Example 9, N-(3-(3-(9H-purin-6-yl)pyridin-2-ylamino)-2,4-difluorophenyl)-1-(2-nitrophenyl)methansulfonamide]
10200 | 1200 | COc1ccc(S(=O)(=O)Nc2ccc(F)c(Nc3ncccc3-c3ncnc4[nH]cnc34)c2F)cc1OC [Example 10, N-(3-(3-(9H-purin-6-yl)pyridin-2-ylamino)-2,4-difluorophenyl)-3,4-dimethoxybenzenesulfonamide]
8370 | 1020 | O=S(=O)(Nc1ccc(F)c(Nc2ncccc2-c2ncnc3[nH]cnc23)c1F)c1cccc2c1OCC2 [Example 36, N-(3-(3-(9H-purin-6-yl)pyridin-2-ylamino)-2,4-difluorophenyl)-2,3-dihydrobenzofuran-7-sulfonamide]
2800 | 720 | O=S(=O)(Nc1ccc(F)c(Nc2ncccc2-c2ncnc3[nH]cnc23)c1F)c1ccc(Cl)c(Cl)c1 [Example 6, N-(3-(3-(9H-purin-6-yl)pyridin-2-ylamino)-2,4-difluorophenyl)-3,4-dichlorobenzenesulfonamide]
4200 | 550 | Cn1ccc2c(S(=O)(=O)Nc3ccc(F)c(Nc4ncccc4-c4ncnc5[nH]cnc45)c3F)cccc21 [Example 41, N-(3-(3-(9H-purin-6-yl)pyridin-2-ylamino)-2,4-difluorophenyl)-1-methyl-1H-indole-4-sulfonamide]
1370 | 120 | Cn1cc(S(=O)(=O)Nc2ccc(F)c(Nc3ncccc3-c3ncnc4[nH]cnc34)c2F)cn1 [Example 43, N-(3-(3-(9H-purin-6-yl)pyridin-2-ylamino)-2,4-difluorophenyl)-1-methyl-1H-pyrazole-4-sulfonamide]

SMILES | IC50 (A375P cell line) [nM] | IC50 (B-Raf) [nM]
O=S(=O)(Nc1ccc(F)c(Nc2ncccc2-c2ncnc3[nH]cnc23)c1F)c1cccnc1 [Example 30, N-(3-(3-(9H-purin-6-yl)pyridin-2-ylamino)-2,4-difluorophenyl)pyridin-3-sulfonamide] | 70 | 4
O=S(=O)(Nc1ccc(F)c(Nc2ncccc2-c2ncnc3[nH]cnc23)c1F)c1ccccc1 [Example 35, N-(3-(3-(9H-purin-6-yl)pyridin-2-ylamino)-2,4-difluorophenyl)benzenesulfonamide] | 160 | 20
CCCS(=O)(=O)Nc1ccc(F)c(Nc2ncccc2-c2ncnc3[nH]cnc23)c1F [Example 5, N-(3-(3-(9H-purin-6-yl)pyridin-2-ylamino)-2,4-difluorophenyl)propan-1-sulfonamide] | 310 | 23
O=S(=O)(Nc1ccc(F)c(Nc2ncccc2-c2ncnc3[nH]cnc23)c1F)c1ccc(F)c(Cl)c1 [Example 28, N-(3-(3-(9H-purin-6-yl)pyridin-2-ylamino)-2,4-difluorophenyl)-3-chloro-4-fluorobenzenesulfonamide] | 1930 | 300
O=S(=O)(Nc1ccc(F)c(Nc2ncccc2-c2ncnc3[nH]cnc23)c1F)c1ccccc1Cl [Example 32, N-(3-(3-(9H-purin-6-yl)pyridin-2-ylamino)-2,4-difluorophenyl)-2-chloro benzenesulfonamide] | 440 | 30
CC(C)S(=O)(=O)Nc1ccc(F)c(Nc2ncccc2-c2ncnc3[nH]cnc23)c1F [Example 1, N-(3-(3-(9H-purin-6-yl)pyridin-2-ylamino)-2,4-difluorophenyl)propane-2-sulfonamide] | 120 | 17
O=S(=O)(Nc1ccc(F)c(Nc2ncccc2-c2ncnc3[nH]cnc23)c1F)c1ccc(Cl)cc1F [Example 8, N-(3-(3-(9H-purin-6-yl)pyridin-2-ylamino)-2,4-difluorophenyl)-4-chloro-2-fluorobenzenesulfonamide] | 700 | 33.7
O=S(=O)(Nc1ccc(F)c(Nc2ncccc2-c2ncnc3[nH]cnc23)c1F)c1cccs1 [Example 4, N-(3-(3-(9H-purin-6-yl)pyridin-2-ylamino)-2,4-difluorophenyl)thiophene-2-sulfonamide] | 30 | 12

From patent US9216981B2, “Purinylpyridinylamino-2,4-difluorophenyl sulfonamide derivative, pharmaceutically acceptable salt thereof, preparation method thereof, and pharmaceutical composition with inhibitory activity against Raf kinase, containing same as active ingredient” (Medpacto, Inc., priority 2010, dated 2015)
